Values quoted from earlier work, collected in PMC4108727 (Angewandte Chemie (International ed. in English), 2013).

Biological target: MTH1 (Homo sapiens, UniProt P36639)
Details: substrate of MTH1; cited from earlier work

## Nc1ncnc2c1[nH]c(=O)n2[C@H]1C[C@H](O)[C@@H](COP(=O)(O)OP(=O)(O)OP(=O)(O)O)O1 [8-oxo-dATP]
  Km: 13.9 µM

## Nc1nc2c([nH]c(=O)n2[C@H]2C[C@H](O)[C@@H](COP(=O)(O)OP(=O)(O)OP(=O)(O)O)O2)c(=O)[nH]1 [8-oxo-dGTP]
  Km: 15.2 µM
